Experimental findings from US20020198379A1, “Active compound from a sponge” (Pharma Mar, s.a., priority 1993, published 2002) are described below.

The LD50 is the dose at which mortality reaches 50%. Read a high LD50 as a less toxic substance. In general, zone of inhibition refers to the size of the clear area around the sample on an inoculated plate. A higher zone of inhibition goes with wide suppression of growth.

≈ marks a conversion by molar mass, not a printed value. Where only a bound is given, the exact number is not on record here.

A short description of one data set: LD50 i.p. in mice. The conditions noted are these: mouse, in vivo, ip.
In a further data set the test system is P-388. In words: in vitro antitumor activity, P-388 tumour cells. The data set is classed as cell-based. Conditions: Mus musculus, P388.
In data set [1] the test system is human lung carcinoma A-549. Nature of the data set: in vitro antitumor activity, A-549 tumour cells. The data set is classed as cell-based. The conditions noted are these: A549. As for the experimental part: (§1) The antitumor activities of this compound have been determined “in vitro” in cell cultures of human lung carcinoma A-549 and human colon carcinoma HT-29. The procedure was carried out using the methodology described by Raymond J. Bergeron et al. Biochem. Bioph. Res. Comm. 1984, 121(3), 848-854 and by Alan C. Schroeder et al. J. Med. Chem. 1981, 24 1078-1083.
(§2) The compound is active against the following tumour cells at the inhibiting concentrations noted: […]

Data set [2] has as its system human colon carcinoma HT-29. In words: in vitro antitumor activity, HT-29 tumour cells. The data set is classed as cell-based. As to the method: as §1, §2
The next data set deals with KB. In words: in vitro antitumor activity, KB tumour cells. The data set is classed as cell-based. The conditions noted are these: Homo sapiens.
The test system of another data set is S. aureus. Nature of the data set: antibiotic disk assay, S. aureus. The data set is classed as cell-based. The conditions noted are these: 10 μg/disk.
A further data set concerns B. subtilis. Nature of the data set: antibiotic disk assay, B. subtilis. The data set is classed as cell-based. The conditions noted are these: 10 μg/disk.
The next data set relates to Penicillium notatum. Nature of the data set: antifungal disk assay, Penicillium notatum. The data set is classed as cell-based. Conditions: Penicillium chrysogenum, 50 μg/disk.
Data set [3] relates to mixed lymphocyte reaction (MLR). Nature of the data set: mixed lymphocyte reaction (MLR). The data set is classed as cell-based. The conditions noted are these: read-out: IC.
Data set [4] deals with primary culture of murine lymphocytes. In words: cytotoxicity assay against primary culture of murine lymphocytes. The conditions noted are these: Mus musculus, Lymphocyte. The data set is classed as cell-based.
The nature of a further data set: pH stability. The data set is classed as physicochemical. As to the method:
Palau'amine was isolated from the sponge as follows. Extraction of the lyophilized sponge (600 g) with MeOH (6 L) and dissolution of the water soluble residue after evaporation yielded 900 ml of an aqueous extract. [The dust from the lyophilized sponge caused a powerful allergic reaction, which entailed severe shortness of breath for about four hours; the effect largely disappeared within 24 hours]. […] Repeated LH-20 chromatography (MeOH) of the 0.5 fraction, after desalting by dissolving in EtOH, furnished essentially pure palau'amine, presumably as the hydrochloride, (14 mg, 0.01% dry weight) as an optically active, off-white amorphous powder that decomposed prior to melting. Further purification of palau'amine could be effected by HPLC [YMC aqueous C18, H2O/MeCN (90:10), 0.1% TFA].

As to `NC[C@H]1[C@H]2CN3C(=O)c4cccn4[C@H]4N=C(N)NC43[C@H]2[C@@]2(N=C(N)N[C@@H]2O)[C@@H]1Cl` (stereo partly drawn) [palau'amine], in “LD50 i.p. in mice”, the LD50 turned out to be 13 mg/kg. Also, the IC50 was 0.1 µg/mL (≈ 0.238 µM) in the data set on P-388; 0.2 µg/mL (≈ 0.476 µM) in data set [1]; 2 µg/mL (≈ 4.76 µM) in data set [2]; 10 µg/mL (≈ 23.8 µM) in the data set on KB; under 0.018 µg/mL in data set [3]; 1.5 µg/mL (≈ 3.57 µM) in data set [4]. For the same molecule, the antibiotic activity entry in the data set with S. aureus and with B. subtilis was “antibiotic activity” each time. In the data set on Penicillium notatum, this molecule gave a zone of inhibition at 50 µg/disc of 24 mm. The “stability >pH 6.5” value in the data set “pH stability” (>pH 6.5) is on record as “decomposes rapidly”. Besides, the stability in acid entry in the data set “pH stability” (in acid) was “quite stable”.
